Test results as given in patent US20040138104A1, “Peptides” (priority 2003, published 2004).
Where two headings read alike, the source gives them in different places.

What was measured:
YopH = YopH (Yersinia pestis, UniProt O68720); assay: biochemical
PTB1B = target: T1, PTB1B (Homo sapiens, UniProt P18031); assay type: biochemical; settings: read-out: IC50 Values in μM Against Various Enzymes: PTB1B
T1 sequence (P18031 1-435): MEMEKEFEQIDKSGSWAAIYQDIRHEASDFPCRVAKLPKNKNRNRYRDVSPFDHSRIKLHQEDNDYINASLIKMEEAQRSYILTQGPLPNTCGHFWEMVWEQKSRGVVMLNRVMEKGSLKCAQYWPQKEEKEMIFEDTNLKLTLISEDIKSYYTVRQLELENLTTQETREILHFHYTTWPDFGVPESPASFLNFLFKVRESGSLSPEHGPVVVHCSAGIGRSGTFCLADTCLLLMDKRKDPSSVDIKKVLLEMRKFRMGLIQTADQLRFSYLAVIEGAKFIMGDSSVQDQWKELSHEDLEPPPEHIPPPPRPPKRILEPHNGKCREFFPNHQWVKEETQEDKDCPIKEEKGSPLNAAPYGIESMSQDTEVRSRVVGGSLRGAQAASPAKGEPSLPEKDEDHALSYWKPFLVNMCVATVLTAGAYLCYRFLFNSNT

[1] = read-out: IC50 Values in μM Against Various Enzymes: YopH

Chain of YopH (O68720 1-468): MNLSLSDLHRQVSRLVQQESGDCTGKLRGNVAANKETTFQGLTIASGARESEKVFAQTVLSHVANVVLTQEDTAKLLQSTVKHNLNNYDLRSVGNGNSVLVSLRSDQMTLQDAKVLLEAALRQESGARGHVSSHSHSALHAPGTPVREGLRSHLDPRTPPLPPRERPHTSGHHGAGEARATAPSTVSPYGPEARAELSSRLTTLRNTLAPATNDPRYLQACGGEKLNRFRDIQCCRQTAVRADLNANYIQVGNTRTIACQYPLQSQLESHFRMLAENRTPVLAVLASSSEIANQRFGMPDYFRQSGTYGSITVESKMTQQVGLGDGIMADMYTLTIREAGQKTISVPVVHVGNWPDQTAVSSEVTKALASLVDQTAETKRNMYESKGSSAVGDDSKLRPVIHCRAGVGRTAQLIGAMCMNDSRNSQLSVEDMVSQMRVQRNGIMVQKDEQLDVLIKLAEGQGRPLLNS

CC(C)C[C@H](NC(=O)[C@H](Cc1ccc(OCC(=O)O)cc1)NC(=O)[C@H](CCC(=O)OCc1ccccc1)NC(=O)OCC1c2ccccc2-c2ccccc21)C(N)=O [TB 26]
IC50 (YopH; [1]): 2.8 ± 1.1 µM
IC50 (PTB1B): 4.6 ± 2 µM

CC(C)C[C@H](NC(=O)[C@H](Cc1ccc(OCC(=O)O)c(OCC(=O)O)c1)NC(=O)[C@H](CCC(=O)OCc1ccccc1)NC(=O)OCC1c2ccccc2-c2ccccc21)C(N)=O [TB 29]
IC50 (YopH; [1]): 19.4 ± 3.3 µM
IC50 (PTB1B): 19.4 ± 3.6 µM

CC(C)C[C@H](NC(=O)[C@H](Cc1ccc(C(F)(C(=O)O)C(=O)O)cc1)NC(=O)[C@H](CCC(=O)OCc1ccccc1)NC(=O)OCC1c2ccccc2-c2ccccc21)C(N)=O [TB 34]
IC50 (YopH): 3 ± 0.7 µM

CC(C)C[C@H](NC(=O)[C@H](Cc1ccc(OCC(=O)O)cc1)NC(=O)[C@H](CCC(=O)OCc1ccccc1)NC(=O)OCc1ccccc1)C(N)=O [TB 39]
IC50 (YopH; [1]): 119 ± 14 µM
IC50 (PTB1B): 72 ± 14 µM

CC(C)C[C@H](NC(=O)[C@H](Cc1ccc(OCC(=O)O)cc1)NC(=O)[C@H](CCC(=O)OCc1ccccc1)NC(=O)OCCc1ccccc1)C(N)=O [TB 40]
IC50 (YopH): 80 ± 8.5 µM
